Reference: PMC7160673, “A Degenerate Peptide Library Approach to Reveal Sequence Determinants of Methyllysine-Driven Protein Interactions” (Frontiers in Cell and Developmental Biology, 2020)

What follows are substances tested on 53BP1 TTD (assay: Histone peptide microarray, 53BP1 TTD). Conditions: 53BP1 TTD hits, average signal per peptide.
Type: binding
Experimental: (§1) Peptide microarrays were fabricated using an Aushon 2470 microarrayer and used as described ([Cornett et al., 2017]) with the following modifications. Protein and antibody hybridization steps were performed in buffer containing 25 mM HEPES pH 7.5, 100 mM NaCl, 0.5% BSA (w/v), and 0.1% NP-40. Slides were washed 3 × 5 min in PBS supplemented with 0.1% Tween-20 between each hybridization step. Antibodies used were primary anti-GST (Sigma #7781, 1:2,000 dilution) and an AlexaFluor 647-labeled secondary antibody (Life Technologies A-21245, 1:5,000 dilution). […] Full lists of peptides queried by array analysis are in Supplementary Table S2.

Substance | Avg Signal
PEPAK(Me3)SAPAPKKGSKKAVTKAQKK-Peg-Biot [Peptide H2BK5me3] | 0.04404
ARTK(Me3)QTARK(Ac)STGGKAPRKQL-K(Biot)-NH2 [H3.1K4me3K9ac] | 0.2378
ARTK(Me3)QpTARKSTGGKAPRKQL-K(Biot)-NH2 [Peptide H3.1K4me3T6p] | 0.1846
AR(Me2s)TK(Me3)QTARKSTGGKAPRKQL-K(Biot)-NH2 [H3.1R2me2sK4me3] | 0.1898
AR(Me2s)TK(Me3)QTARK(Ac)STGGK(Ac)APRK(Ac)QL-K(Biot)-NH2 [H3.1R2me2sK4me3K9acK14acK18ac] | 0.134
Ac-APRK(Me3)QLATKAARKSAPSTGGVK(Me3)KPHRY-GG-K(Biot)-NH2 [H3.3K18me3K36me3] | 0.1772
Ac-SGRGK(Ac)QGGK(Ac)ARAK(Ac)AK(Ac)TR-Peg-Biot [H2AK5acK9acK13acK15ac] | 0.0113
ARTK(Me3)QpTARK(Ac)STGGK(Ac)APRK(Ac)QL-K(Biot)-NH2 [H3.1K4me3T6pK9acK14acK18ac] | 0.03157
ACitTK(Me3)QTARKSTGGKAPRKQL-K(Biot)-NH2 [H3.1Cit2K4me3] | 0.1746
ARTK(Me3)QTARK(Ac)STGGK(Ac)APRK(Ac)QL-K(Biot)-NH2 [H3.1K4me3K9acK14acK18ac] | 0.09733

The substances below were run on Millipore #07-449, anti-H3K27me3 (assay: Histone peptide microarray, Millipore 07-449). Conditions: Millipore 07-449 (anti-H3K27me3) hits, average signal per peptide.
Type: binding
Experimental: as §1

Substance | Avg Signal
PEPAK(Me3)SAPAPKKGSKKAVTKAQKK-Peg-Biot [Peptide H2BK5me3] | 0.1635
ARTK(Me3)QTARK(Ac)STGGKAPRKQL-K(Biot)-NH2 [H3.1K4me3K9ac] | 0.05697
ARTK(Me3)QpTARKSTGGKAPRKQL-K(Biot)-NH2 [Peptide H3.1K4me3T6p] | 0.009429
AR(Me2s)TK(Me3)QTARKSTGGKAPRKQL-K(Biot)-NH2 [H3.1R2me2sK4me3] | 0.0135
AR(Me2s)TK(Me3)QTARK(Ac)STGGK(Ac)APRK(Ac)QL-K(Biot)-NH2 [H3.1R2me2sK4me3K9acK14acK18ac] | 0.02279
Ac-APRK(Me3)QLATKAARKSAPSTGGVK(Me3)KPHRY-GG-K(Biot)-NH2 [H3.3K18me3K36me3] | 0.2482
Ac-SGRGK(Ac)QGGK(Ac)ARAK(Ac)AK(Ac)TR-Peg-Biot [H2AK5acK9acK13acK15ac] | 0.001671
ARTK(Me3)QpTARK(Ac)STGGK(Ac)APRK(Ac)QL-K(Biot)-NH2 [H3.1K4me3T6pK9acK14acK18ac] | 0.0001463
ACitTK(Me3)QTARKSTGGKAPRKQL-K(Biot)-NH2 [H3.1Cit2K4me3] | 0.01263
ARTK(Me3)QTARK(Ac)STGGK(Ac)APRK(Ac)QL-K(Biot)-NH2 [H3.1K4me3K9acK14acK18ac] | 0.03443

Each substance was assayed on CST 9733 (anti-H3K27me3) (assay: Histone peptide microarray, CST 9733). Conditions: histone peptide array signal normalized to the highest peptide average per subarray, hits; CST 9733 LOT:14 dilution 1:5,000.
Type: binding
Experimental: as §1

Substance | Avg Signal
PEPAK(Me3)SAPAPKKGSKKAVTKAQKK-Peg-Biot [Peptide H2BK5me3] | 0.00351
ARTK(Me3)QTARK(Ac)STGGKAPRKQL-K(Biot)-NH2 [H3.1K4me3K9ac] | 0.008895
ARTK(Me3)QpTARKSTGGKAPRKQL-K(Biot)-NH2 [Peptide H3.1K4me3T6p] | 0.001818
AR(Me2s)TK(Me3)QTARKSTGGKAPRKQL-K(Biot)-NH2 [H3.1R2me2sK4me3] | 0.00218
AR(Me2s)TK(Me3)QTARK(Ac)STGGK(Ac)APRK(Ac)QL-K(Biot)-NH2 [H3.1R2me2sK4me3K9acK14acK18ac] | 0.0007823
Ac-APRK(Me3)QLATKAARKSAPSTGGVK(Me3)KPHRY-GG-K(Biot)-NH2 [H3.3K18me3K36me3] | 0.04154
ARTK(Me3)QpTARK(Ac)STGGK(Ac)APRK(Ac)QL-K(Biot)-NH2 [H3.1K4me3T6pK9acK14acK18ac] | 0.004429
ACitTK(Me3)QTARKSTGGKAPRKQL-K(Biot)-NH2 [H3.1Cit2K4me3] | 0.00216
ARTK(Me3)QTARK(Ac)STGGK(Ac)APRK(Ac)QL-K(Biot)-NH2 [H3.1K4me3K9acK14acK18ac] | 0.009625

The substances below were run on Abcam #ab8895, anti-H3K4me1 (assay: Histone peptide microarray, Abcam ab8895). Conditions: Abcam ab8895 (anti-H3K4me1) hits, average signal per peptide.
Type: binding
Experimental: as §1

Substance | Avg Signal
Ac-APRK(Me3)QLATKAARKSAPSTGGVK(Me3)KPHRY-GG-K(Biot)-NH2 [H3.3K18me3K36me3] | 0.006536

The substances below were run on ABClonal #A2355, anti-H3K4me1 (assay: Histone peptide microarray, ABclonal A2355). Conditions: Abclonal A2355 (anti-H3K4me1) hits.
Type: binding
Experimental: as §1

Substance | Avg Signal
Ac-SGRGK(Ac)QGGK(Ac)ARAK(Ac)AK(Ac)TR-Peg-Biot [H2AK5acK9acK13acK15ac] | 0.0056

Each substance was assayed on Active Motif #39161, anti-H3K9me3 (assay: Histone peptide microarray, Active Motif 39161). Conditions: Active Motif 39161 (anti-H3K9me3) hits.
Type: binding
Experimental: as §1

Substance | Avg Signal
PEPAK(Me3)SAPAPKKGSKKAVTKAQKK-Peg-Biot [Peptide H2BK5me3] | 0.03906
ARTK(Me3)QTARK(Ac)STGGKAPRKQL-K(Biot)-NH2 [H3.1K4me3K9ac] | 0.02897
ARTK(Me3)QpTARKSTGGKAPRKQL-K(Biot)-NH2 [Peptide H3.1K4me3T6p] | 0.02043
AR(Me2s)TK(Me3)QTARKSTGGKAPRKQL-K(Biot)-NH2 [H3.1R2me2sK4me3] | 0.01035
AR(Me2s)TK(Me3)QTARK(Ac)STGGK(Ac)APRK(Ac)QL-K(Biot)-NH2 [H3.1R2me2sK4me3K9acK14acK18ac] | 0.02558
Ac-APRK(Me3)QLATKAARKSAPSTGGVK(Me3)KPHRY-GG-K(Biot)-NH2 [H3.3K18me3K36me3] | 0.4275
Ac-SGRGK(Ac)QGGK(Ac)ARAK(Ac)AK(Ac)TR-Peg-Biot [H2AK5acK9acK13acK15ac] | 0.005245
ARTK(Me3)QpTARK(Ac)STGGK(Ac)APRK(Ac)QL-K(Biot)-NH2 [H3.1K4me3T6pK9acK14acK18ac] | 0.005164
ACitTK(Me3)QTARKSTGGKAPRKQL-K(Biot)-NH2 [H3.1Cit2K4me3] | 0.009245
ARTK(Me3)QTARK(Ac)STGGK(Ac)APRK(Ac)QL-K(Biot)-NH2 [H3.1K4me3K9acK14acK18ac] | 0.004819
